Assay results taken from publication PMC10179701, “Towards Protection of Nucleic Acids from Herbicide Attack: Self-Assembly of Betaines Based on Pillar[5]arene with Glyphosate and DNA” (International Journal of Molecular Sciences, 2023).
Values joined by “and” are separate entries in the source; they are usually repeats but may differ in a detail not shown here. Equal entries are not always repeated.

What was measured:
[1] = Dynamic light scattering of macrocycle aggregates in water; type: physicochemical; settings: H2O, 298 K
Experimental: The next stage of the work was the study of aggregation properties of both previously synthesized ester derivatives of amino acids 1 and 2, and macrocyclic betaine derivatives 3 and 4 by dynamic light scattering (DLS). The study was carried out in water in the 1 × 10^–6–1 × 10^–4 M concentration range (Figures S11–S22). The size of associates increases with decreasing macrocycle 1 concentration in solution (Table 1). A different pattern is observed for betaine derivative 3. Thus, the particles become coarser, and the polydispersity index (PDI) of the systems increased with an increase in compound 3 concentration, which is probably due to the formation of β-sheets by oligopeptide substituents. The presence of two oppositely charged fragments in one substituent leads to the fact that compound 3 becomes similar to surfactant molecules in terms of its aggregation properties.

[2] = Dynamic light scattering of (macrocycle-DNA)-GIS associates in Tris-HCl buffer; type: physicochemical; settings: CPA 3 × 10^–6 M, CDNA 2.5 × 10^–7 M, CGIS 3 × 10^–6 M
Description: The obtained (macrocycle-DNA)-GIS associates were also studied by DLS in Tris-HCl buffer solution. The concentration of each component of the mixture was the same as in the experiments performed by UV-Vis spectroscopy (CPA = 3 × 10^–6 M, CDNA = 2.5 × 10^–7 M, CGIS = 3 × 10^–6 M). The formation of the stable aggregates (d = 183 ± 5 nm, PDI = 0.19, and ζ = –22.2 mV) was found only for the system based on macrocycle 2 with phenylalanine ester fragments (Figure S33). […] This, apparently, leads to the formation of stable aggregates in the case of the three-component (macrocycle-DNA)-GIS systems. The associate’s formation for three-component (2–DNA)–GIS system was additionally confirmed by TEM (Figure 8). It was shown that spherical nanosized particles with sizes close to those determined by DLS are formed.

[3] = Transmission electron microscopy of aggregates; type: physicochemical; settings: 1 × 10^−4 M in water
Description: The nanosized aggregates formed by macrocycle 2 were studied by transmission electron microscopy (TEM). The formation of the spherical nanosized particles with sizes close to those determined by DLS was confirmed.

A549 cells [4] = assay: MTT test, A549 cells
Experimental: (§1) The next stage of this work was the study of pillar[5]arenes 1–4 ability to inhibit the viability and proliferative activity of embryonic lung epithelial (LEC) and human lung adenocarcinoma (A549) cells using the MTT test.
(§2) Further, the ability of GIS to inhibit the viability and proliferative activity of LEC and A549 cells was studied by the MTT test. […] The average inhibitory concentration (IC50) was calculated for GIS (Table 3). […]
(§3) 1.6. Cytotoxicity of pillar[5]arenes 1–4, GIS and their mixtures on A549 and LEC Cell Lines […]
(§4) activity of LEC cells and A549 cells was investigated using the MTT test according to [2]. A549 – human alveolar adenocarcinoma cell line (ATCC, Rockville, Maryland, USA) and cow embryo lung epithelial (LEC) cells (Animal Cell Culture Collection of Russian Academy of Agricultural Science, Kazan, Russia) were cultured in DMEM (GIBCO, Waltham, MA, USA) medium supplemented with 10% serum and 100 units/mL of penicillin (PanEco, Moscow, Russia) and streptomycin (PanEco, Moscow, Russia) in a humidified atmosphere with 5% CO2 at 37 °C. Cells were seeded in 96‐well plates at a concentration of 10^4 cells/well. After 24 h of cultivation, the medium was removed from the wells and replaced with a fresh one with the addition of the test substances. The volume of the culture medium in the wells was 100
(§5) μL. After 24 h incubation of cells in the presence of substances, the medium in the wells was replaced with a fresh one containing MTT reagent at a final concentration of 0.5 mg/mL. The cells were incubated with MTT for 4 h at 37 °C in an atmosphere of 5% CO2. Then, the medium was aspirated from the wells and 100 μL of dimethyl sulfoxide was added. Probes were incubated at 37 °C for 15 min in the dark for the formazan crystals to dissolve. The optical density of the formazan solution in the wells was measured using a plate reader (BioRad xMarkTM Microplate Spectrophotometer, USA) at a wavelength of 570 nm.
(§6) Three series of experiments were carried out with at least 8 replications for each variant in the series. […]

LEC cells [5] = assay: MTT test, LEC cells
Experimental: as §1, §2, §3, §4, §5, §6

A549 cells [6] = assay: Apoptosis induction by flow cytometry (DiOC6/PI), A549 cells; type: cell-based, human; settings: A549, 25 μg/mL, 24 h
Experimental: (§7) The cytotoxic effect of pillar[5]arene 2 containing ester fragments of phenylalanine is probably due to the stable aggregates’ formation (Table 1). […] The agent concentration of 25 μg/mL was chosen for the experiment. […] The apoptosis-inducing effect of compound 2 on A549 and LEC cells turned out approximately the same. […]
(§8) buffer solution. The UV spectra of the solutions were then recorded. The stability constant of complex was calculated by Bindfit. Three independent experiments were carried out for each series. […]
(§9) volume of 3 mL with Tris‐HCl buffer solution. The UV spectra of the solutions were then recorded. The stability constant of each complex was calculated by Bindfit. Three independent experiments were carried […]
(§10) stability constant of complex was calculated by Bindfit. Three independent experiments were carried out […]
(§11) humidified atmosphere with 5% CO2 at 37 °C. […]
(§12) fresh one with the addition of the test substances.
(§13) Then, the medium was aspirated from the wells and 100 μL of dimethyl sulfoxide was added. […]
(§14) the formazan crystals to dissolve.
(§15) BD FACSCanto II flow cytometer. […]
(§16) humidified atmosphere with 5% CO2. […]
(§17) substances. […] After 24 h of incubation cells were […]

LEC cells [7] = assay: Apoptosis induction by flow cytometry (DiOC6/PI), LEC cells; type: cell-based, cow; settings: 25 μg/mL, 24 h
Experimental: as §7, §8, §9, §10, §11, §12, §13, §14, §15, §16, §17

A549 cells [8] = assay: MTT assay, combined action of macrocycles with GIS on A549 cells; type: cell-based, human; settings: A549, pillararene 1 × 10^–5 M with GIS 3.47 × 10^–2 M
Experimental: The ability to inhibit the viability and proliferative activity of A549 cells of macrocycles 1–4 in the presence of GIS was studied using the MTT assay. […] The developed approach opens up the possibility of creating pillar[5]arene-based herbicide antidotes. […]
as §12
Then, the medium was aspirated from the wells
and 100 μL of dimethyl sulfoxide was added.
the formazan crystals to dissolve. […]
as §17

polydispersity index (PDI) ([1]; 1 × 10^–4 M): 0.24
size of aggregates d ([1]; 1 × 10^–4 M): 179 nm and 179 ± 8 nm
zeta potential ζ ([1]; 1 × 10^–4 M): +15.9 mV
polydispersity index (PDI) ([1]; 1 × 10^–5 M): 0.21
size of aggregates d ([1]; 1 × 10^–5 M): 157 ± 2 nm
zeta potential ζ ([1]; 1 × 10^–5 M): +31.6 mV
polydispersity index (PDI) ([1]; 1 × 10^–6 M): 0.28
size of aggregates d ([1]; 1 × 10^–6 M): 144 nm and 144 ± 7 nm
zeta potential ζ ([1]; 1 × 10^–6 M): +12.5 mV
PDI of three-component (macrocycle-DNA)-GIS system [2]: 0.19
size of aggregates d of three-component (macrocycle-DNA)-GIS system [2]: 183 ± 5 nm
zeta potential ζ of three-component (macrocycle-DNA)-GIS system [2]: –22.2 mV
average diameter of particles (TEM) [3]: 50 nm
IC50 (A549 cells [4]; A549, MTT, 24 h): 29.67 µg/mL
Structure (SMILES): CCOC(=O)[C@H](Cc1ccccc1)NC(=O)C[N+](C)(C)CCCNC(=O)COc1cc2c(OCC(=O)NCCC[N+](C)(C)CC(=O)N[C@@H](Cc3ccccc3)C(=O)OCC)cc1Cc1cc(OCC(=O)NCCC[N+](C)(C)CC(=O)N[C@@H](Cc3ccccc3)C(=O)OCC)c(cc1OCC(=O)NCCC[N+](C)(C)CC(=O)N[C@@H](Cc1ccccc1)C(=O)OCC)Cc1cc(OCC(=O)NCCC[N+](C)(C)CC(=O)N[C@@H](Cc3ccccc3)C(=O)OCC)c(cc1OCC(=O)NCCC[N+](C)(C)CC(=O)N[C@@H](Cc1ccccc1)C(=O)OCC)Cc1cc(OCC(=O)NCCC[N+](C)(C)CC(=O)N[C@@H](Cc3ccccc3)C(=O)OCC)c(cc1OCC(=O)NCCC[N+](C)(C)CC(=O)N[C@@H](Cc1ccccc1)C(=O)OCC)Cc1cc(OCC(=O)NCCC[N+](C)(C)CC(=O)N[C@@H](Cc3ccccc3)C(=O)OCC)c(cc1OCC(=O)NCCC[N+](C)(C)CC(=O)N[C@@H](Cc1ccccc1)C(=O)OCC)C2.[Br-].[Br-].[Br-].[Br-].[Br-].[Br-].[Br-].[Br-].[Br-].[Br-] [Compound 2]
concentration at which viability was reduced (A549 cells [4]; A549): ≥ 5000 ng/mL
concentration at which viability was reduced (LEC cells [5]): ≥ 5000 ng/mL
IC50 (LEC cells [5]; MTT, 24 h): 28.16 µg/mL
proportion of living cells (Live, percentage of stained cells) (A549 cells [6]): 74.8%
proportion of living cells (Live, percentage of stained cells) (LEC cells [7]): 72.7%
change of toxicity on combined action with GIS (A549 cells [8]): increase in toxicity
